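Interpolation was linear, between the two tested concentrations surrounding the appropriate level; five concentrations were tested over 48 hours in 96-well plates. Definition used: TGI = concentration required for complete inhibition of growth.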

Holding throughout (test): NCI anticancer screen, dose series, 48 h
In assay [1] the test system is RPMI-8226 leukemia.
Assay [2] concerns HCC-2998 colon.
The test system of assay [3] is HCT-15 colon.
Assay [4] has as its system MOLT-4 leukemia.
Assay [5] relates to MDA-MB-435.
Assay [6] relates to SF-295 CNS.
Assay [7] concerns SF-539 CNS.
Assay [8] concerns IGROV1 ovarian.
Assay [9] relates to OVCAR-5 ovarian.
Assay [10] concerns K-562 leukemia.
The test system of assay [11] is HT29 colon.
In assay [12] the test system is NCI-H522 lung.
Assay [13] has as its system M14 melanoma.
Assay [14] has as its system HOP-92 NSCLC.
Assay [15] deals with A498 renal.
In assay [16] the test system is TK-10 renal.
For assay [17], the system named is KM12 colon.

In the case of `O=C(CCCl)NNC1=NCCN1`, the TGI in assay [1], in assay [2], in [3], in assay [4], in assay [5] and in assay [6] was more than 100 µM in each case. Besides, the TGI in assay [7], in assay [8], in assay [9], in [10], in assay [11] and in assay [12] was more than 100 µM throughout. For the same compound, the TGI in assay [13], in assay [14], in [15], in assay [16] and in assay [17] was more than 100 µM in each case.
For `FC(F)(Sc1ccccc1)c1nc2ccccc2o1`, the TGI is more than 100 µM in assay [1]; more than 100 µM in [2]; more than 100 µM in assay [3]; 52.2 µM in assay [4]; more than 100 µM in [5]; more than 100 µM in assay [6]. The TGI in [7], in assay [8], in assay [9], in assay [10], in assay [11] and in [12] was more than 100 µM throughout. Moreover, the TGI in [13], in assay [14], in assay [15], in assay [16] and in assay [17] was more than 100 µM in each case.
In the case of `CCCCn1c2c(n(CCCC)c1=S)-c1c(n(CCCC)c(=S)n1CCCC)SSSS2`, the TGI in [1] was 10.2 µM; in assay [2], 26.7 µM; in assay [3], 4.45 µM; in [4], more than 36.2 µM; in [5], 23.9 µM; in [6], more than 100 µM. Besides, the TGI in assay [7] stood at 2.94 µM; in assay [8], 4.2 µM; in assay [9] it was 1.66 µM; in [11], 7.91 µM; in assay [12], 0.274 µM; in assay [13] it was 17.5 µM. Besides, the TGI in assay [14] is 6.04 µM; in assay [15] it was more than 100 µM; in assay [16], 22.9 µM; in assay [17] it was more than 33.1 µM.
With `CN(C)c1nc(NN)c2c(-c3ccccc3)c(-c3ccccc3)oc2n1`, the TGI in assay [1], in assay [2], in assay [3], in assay [4], in assay [5] and in assay [6] was more than 100 µM throughout. For the same compound, the TGI in [7], in assay [8], in assay [9], in assay [10], in assay [11] and in [12] was more than 100 µM each time. Further, the TGI in [13], in assay [14], in assay [15], in [16] and in assay [17] was more than 100 µM each time.
Turning to `NCCCN1CCN(CC(=O)O)CCN(CCCN)CCN(CC(=O)O)CC1`, the TGI in [1], in [2], in assay [3], in [4], in [5] and in assay [6] was more than 100 µM in each case. The TGI was more than 100 µM in assay [7]; more than 100 µM in assay [8]; more than 93.8 µM in [9]; more than 100 µM in assay [10]; more than 100 µM in assay [11]; more than 84.2 µM in assay [12]. The TGI in assay [13], in assay [14], in assay [15], in [16] and in [17] was more than 100 µM throughout.
Consider `CC(CO)C1=CC(C#CCOCc2ccccc2)N(C(=O)Oc2ccccc2)c2ccccc21` (configuration not stated), for which the TGI was more than 100 µM in assay [1]; more than 100 µM in assay [2]; 29.7 µM in assay [3]; more than 100 µM in assay [4]; 47.9 µM in [5]; 71.9 µM in [6]. The TGI was more than 100 µM in assay [7]; more than 100 µM in assay [8]; more than 100 µM in [9]; more than 100 µM in assay [10]; more than 100 µM in [11]; 37.3 µM in assay [12]. Further, the TGI in [13] is more than 100 µM; in assay [14], 61.7 µM; in assay [15] it was 24.2 µM; in assay [16], more than 100 µM; in assay [17], 82.9 µM.
As for `O=C(O)CC/C(=N\Nc1nsc2ccccc12)c1ccc(Cl)cc1`, the TGI in assay [1] was 45.9 µM; in assay [2], 36.8 µM; in assay [3], 53.5 µM; in assay [4], 73.5 µM; in assay [5], 75.3 µM; in assay [6] it was more than 100 µM. Moreover, the TGI in assay [7] was more than 89.8 µM; in assay [8], more than 100 µM; in [9], more than 100 µM; in assay [10], more than 100 µM; in assay [11], more than 78.1 µM; in [12], more than 100 µM. The TGI in [13] was more than 65.8 µM; in assay [14] it was more than 100 µM; in [15], 99.4 µM; in [16], more than 67.6 µM; in assay [17], more than 100 µM.
For the compound `O=c1ccn2n1CCCCC2`, the TGI in assay [1], in assay [2], in [3], in assay [4], in assay [5] and in assay [6] was more than 100 µM each time. The TGI in [7], in assay [8], in assay [9], in [10], in assay [11] and in assay [12] was more than 100 µM in each case. Moreover, the TGI in assay [13], in assay [14], in assay [15], in [16] and in assay [17] was more than 100 µM each time.
For `Cc1cc(C)c2c(=O)n(CN3CCC(O)(c4ccccc4)CC3)sc2n1`, the TGI was more than 100 µM in [1]; 57.3 µM in assay [2]; more than 100 µM in [3]; 76.3 µM in [4]; 48.7 µM in assay [5]; more than 100 µM in [6]. Moreover, the TGI in [7] was 58.3 µM; in [8], more than 100 µM; in assay [9], 68.7 µM; in assay [10], more than 100 µM; in assay [11], 98.9 µM; in assay [12], 24.2 µM. Further, the TGI is more than 100 µM in [13]; more than 100 µM in assay [14]; more than 100 µM in assay [15]; 29.8 µM in assay [16]; more than 100 µM in assay [17].

Values taken from PubChem BioAssay (NCI).
